Measured values published in US20240409559A1, “CRYSTALLINE FORM OF AZALACTAM COMPOUND” (PFIZER INC., priority 2021, published 2024).

Assays:
[1] = Moisture sorption/desorption by dynamic vapor sorption (DVS), with post-DVS PXRD; type: physicochemical
Description: This example provides characterization data on PF-07265028 Form 1 from a sample obtained using a procedure disclosed in International Patent Publication No. WO2021/220185, using powder x-ray diffraction and dynamic vapor sorption to support the preparation of a disclosure. Form 1 is a crystalline hygroscopic tetrahydrate with multiple powder patterns depending on temperature and humidity. […] The dehydration risk can pose challenges to API isolation, storage and drug product manufacture. Maintaining the proper water content is considered to be difficult for Form 1.

[2] = Thermal analysis: dehydration by TGA; type: physicochemical

Row | SMILES | Hygroscopicity (in words) [1] | Moisture Sorption/Desorption-Hydrate (DVS): Change in mass-ref (%) ([1]; 75% RH) | Moisture Sorption/Desorption-Hydrate (DVS): Change in mass-ref (%) ([1]; 90% RH) | Crystallinity after dehydration ([1]; after dehydration, PXRD after the water sorption experiment) | Post-DVS PXRD result ([1]; after water sorption experiment) | Moisture Sorption/Desorption-Hydrate (DVS): dehydration state ([1]; at 3% RH) | Moisture Sorption/Desorption-Hydrate (DVS): Change in mass-ref (%) ([1]; at 60% RH) | Moisture Sorption/Desorption-Hydrate (DVS): rehydrate at or below 10% RH ([1]; at or below 10% RH) | Rehydration at high humidity conditions ([1]; high humidity conditions, after dehydration) | Dehydration (TGA)-Hydrated/Solvated, weight loss [2] [% weight loss] | Post-DVS PXRD compared with in-going material ([1]; after DVS experiment) | Hygroscopicity: Moisture Sorption (DVS)-Anhydrous ([1]; at 60% RH) [% at 60% RH] | Hygroscopicity: Moisture Sorption (DVS)-Anhydrous ([1]; at 75% RH) [% at 75% RH] | Hygroscopicity: Moisture Sorption (DVS)-Anhydrous ([1]; at 90% RH) [% at 90% RH]
1 | CC[C@@H](N)c1nc(N2CCC[C@H]2C)cc2c1CN(c1cccc(-c3nnc4n3[C@@H](C)CC4)n1)C2=O [Form 1, 4-[(1R)-1-aminopropyl]-2-{6-[(5S)-5-methyl-6,7-dihydro-5H-pyrrolo[2,1-c][1,2,4]triazol-3-yl]pyridin-2-yl}-6-[(2R)-2-methylpyrrolidin-1-yl]-2,3-dihydro-1H-pyrrolo[3,4-c]pyridin-1-one] | hygroscopic | ~−2.4 | ~−0.1 | can lose crystallinity | peak shifting and disorder observed | Completely dehydrated | Change in mass-ref (%) at 60% RH: ~−6.2%; | did not | does not rehydrate | ~14 | – | – | – | –
2 | CC[C@@H](N)c1nc(N2CCC[C@H]2C)cc2c1CN(c1cccc(-c3nnc4n3[C@@H](C)CC4)n1)C2=O [Form 2, 4-[(1R)-1-aminopropyl]-2-{6-[(5S)-5-methyl-6,7-dihydro-5H-pyrrolo[2,1-c][1,2,4]triazol-3-yl]pyridin-2-yl}-6-[(2R)-2-methylpyrrolidin-1-yl]-2,3-dihydro-1H-pyrrolo[3,4-c]pyridin-1-one] | non-hygroscopic | – | – | – | – | – | – | – | – | – | Post-DVS PXRD is consistent with in- | ~0.2 | ~0.2 | ~0.2
